This passage reports TGI results from PubChem BioAssay (NCI).

Holding throughout (experiment): growth of human tumour cells (NCI), 48 h
The test system of experiment [1] is HOP-92 NSCLC.
Experiment [2] deals with NCI-H23 lung.
The subject of experiment [3] is DU-145 prostate.
Experiment [4] deals with T-47D breast.
Experiment [5] has as its system RPMI-8226 leukemia.
Experiment [6] has as its system BT-549 breast.
Experiment [7] concerns NCI/ADR-RES ovarian.
The subject of experiment [8] is ACHN renal.
For experiment [9], the system named is A549 NSCLC.
In experiment [10] the test system is NCI-H460 lung.
Experiment [11] has as its system OVCAR-8 ovarian.
For experiment [12], the system named is 786-0 renal.
Experiment [13] concerns SNB-75 CNS.
Experiment [14] deals with U251 CNS.
Experiment [15] deals with SF-268 CNS.
The subject of experiment [16] is EKVX NSCLC.

Structures are written as SMILES.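 All cell lines were grown in 96-well plates and treated with compound for 48 hours. TGI denotes the concentration required for complete inhibition of growth.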

On to `O=C1CC(=O)NC(=NN2C(=O)CSC2c2ccc(Cl)cc2)N1` (centres undefined), for which the TGI in experiment [1], in experiment [2], in [3], in [4], in experiment [5] and in experiment [6] was more than 100 µM each time. Also, the TGI in experiment [7], in [8], in experiment [9], in experiment [10], in experiment [11] and in experiment [12] was more than 100 µM in each case. Besides, the TGI in experiment [13], in experiment [14] and in experiment [15] was more than 100 µM each time.

Turning to `COC(=O)c1ccccc1C1CN=NC12Cc1cc3c(cc1C2=O)CCC3` (centres undefined), the TGI in experiment [1], in experiment [2], in experiment [3], in [4], in experiment [6] and in [7] was more than 100 µM in each case. The TGI in experiment [8], in experiment [9], in [10], in experiment [11], in experiment [12] and in [13] was more than 100 µM throughout. In addition, the TGI in experiment [16], in experiment [14] and in experiment [15] was more than 100 µM each time.

For the compound `CN1CC=C(C#CC(C)(C)O)CC1`, the TGI in [2], in experiment [3], in [4], in experiment [5], in experiment [6] and in experiment [7] was more than 37.5 µM throughout. The TGI in experiment [8], in experiment [9], in experiment [10], in experiment [11], in experiment [12] and in experiment [13] was more than 37.5 µM in each case. Moreover, the TGI in experiment [16], in experiment [14] and in experiment [15] was more than 37.5 µM each time.

On to `CC1=C(C)C2(C#N)C(=O)N3C(=NC(c4ccco4)NC3c3ccco3)C2(C#N)C(c2ccco2)N1` (centres undefined), for which the TGI in experiment [1], in experiment [2], in experiment [3], in experiment [4], in experiment [5] and in [6] was more than 100 µM throughout. The TGI in experiment [7], in experiment [8], in experiment [9], in experiment [10], in [11] and in experiment [12] was more than 100 µM throughout. The TGI in [16], in experiment [14] and in [15] was more than 100 µM throughout.

As for `c1ccc(CN2C3C4N(Cc5ccccc5)C2C2N(Cc5ccccc5)C(C(N2Cc2ccccc2)N4Cc2ccccc2)N3Cc2ccccc2)cc1`, the TGI in experiment [1], in [2], in experiment [3], in [4], in experiment [5] and in [6] was more than 100 µM throughout. For the same compound, the TGI in experiment [7], in [8], in experiment [9], in experiment [11], in experiment [12] and in [13] was more than 100 µM in each case. For the same compound, the TGI in [16], in experiment [14] and in experiment [15] was more than 100 µM in each case.

For `COC(=O)C1=C(C)NC(CF)=C(C(=O)OC)C1c1cccc2c(=O)c3ccccc3oc12` (centres undefined), the TGI is 35.3 µM in experiment [1]; more than 100 µM in [2]; more than 100 µM in [3]; more than 100 µM in [4]; more than 100 µM in [5]; more than 100 µM in experiment [6]. Besides, the TGI in experiment [7] is 27.8 µM; in [8], more than 100 µM; in [9] it was more than 100 µM; in experiment [10] it was more than 100 µM; in [11], more than 100 µM; in [12] it was 33.8 µM. Besides, the TGI is more than 100 µM in experiment [13], more than 100 µM in experiment [16] and 63.6 µM in [15].

Consider `Cc1ccc(S(=O)(=O)NC(=O)NC(CCCCN)C(=O)O)cc1` (centres undefined), for which the TGI in experiment [1], in experiment [2], in [3], in experiment [4], in experiment [5] and in [6] was more than 100 µM throughout. The TGI in [7], in experiment [8], in [9], in [10], in experiment [11] and in experiment [12] was more than 100 µM each time. The TGI in experiment [13], in experiment [14] and in experiment [15] was more than 100 µM throughout.

Take `C#CCNCC(=O)O`: the TGI in [1], in experiment [2], in experiment [3], in experiment [4], in [5] and in experiment [6] was more than 100 µM in each case. Further, the TGI in experiment [7], in experiment [8], in [9], in [11], in experiment [12] and in experiment [16] was more than 100 µM throughout. Moreover, the TGI in [14] and in [15] was more than 100 µM throughout.

In the case of `CCN(CC)CCC(=O)c1ccc(Cl)c(Cl)c1`, the TGI in [1] was 30.6 µM; in experiment [3], more than 100 µM; in experiment [4], 51.1 µM; in experiment [5], more than 100 µM; in experiment [6] it was 36.3 µM; in experiment [7], more than 100 µM. Further, the TGI in experiment [8] is more than 100 µM; in [9] it was more than 100 µM; in experiment [10], more than 100 µM; in [11] it was more than 100 µM; in experiment [12], 31.9 µM; in [13] it was 80.1 µM. Further, the figures for the TGI in experiment [16], in experiment [14] and in experiment [15] were more than 100 µM, more than 100 µM and 63.4 µM, respectively.
